Source: ChEMBL document CHEMBL1201862, “PubChem BioAssay data set” (2004)
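Tested at 5 concentrations; 48 h exposure; 96-well plates; endpoints linearly interpolated, else capped at highest concentration. GI50 marks 50% less growth.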 Activity calls are given as the source filed them. No stated cut-off is given here; in the data, active = GI50 up to about 1.1 µM and inactive = higher.

Columns and labels:
Test in all cases: growth of human tumour cells (NCI), 48 h
[1] = tested on: RXF 393
[2] = tested on: DU-145
[3] = tested on: MDA-MB-231
[4] = tested on: NCI-H460
[5] = tested on: RPMI-8226
[6] = tested on: ACHN
[7] = tested on: CAKI-1
[8] = tested on: SW-620
[9] = tested on: MDA-N
[10] = tested on: SNB-75
[11] = tested on: HOP-92
[12] = tested on: SN12C
[13] = tested on: CCRF-CEM
[14] = tested on: K562
[15] = tested on: SF-539
[16] = tested on: MOLT-4
[17] = tested on: NCI/ADR-RES
[18] = tested on: SF-268
[19] = tested on: MDA-MB-435

CCOC(=O)C(C/C=C/CO)N(C)C(=O)OC(C)(C)C (stereo not given)
GI50 [1]: > 100 µM (inactive) | GI50 [2]: > 100 µM (inactive) | GI50 [3]: > 100 µM (inactive) | GI50 [4]: > 100 µM (inactive) | GI50 [5]: > 100 µM (inactive) | GI50 [6]: > 100 µM (inactive) | GI50 [7]: > 100 µM (inactive) | GI50 [8]: > 100 µM (inactive) | GI50 [9]: > 100 µM (inactive) | GI50 [10]: 50.9 µM (inactive) | GI50 [11]: > 100 µM (inactive) | GI50 [12]: > 100 µM (inactive) | GI50 [13]: 28.1 µM (inactive) | GI50 [14]: 83.9 µM (inactive) | GI50 [15]: > 100 µM (inactive) | GI50 [16]: > 100 µM (inactive) | GI50 [17]: > 100 µM (inactive) | GI50 [18]: 92.9 µM (inactive)

Oc1c(N2CCOCC2)cc(-c2cc(N3CCOCC3)c(O)c3ccccc23)c2ccccc12
GI50 [1]: 1.56 µM (inactive) | GI50 [3]: 1.24 µM (inactive) | GI50 [4]: 2.83 µM (inactive) | GI50 [6]: 2.93 µM (inactive) | GI50 [7]: 2.69 µM (inactive) | GI50 [8]: 2.04 µM (inactive) | GI50 [9]: 0.389 µM (active) | GI50 [10]: 2.26 µM (inactive) | GI50 [12]: 1.58 µM (inactive) | GI50 [13]: 1.48 µM (inactive) | GI50 [14]: 1.88 µM (inactive) | GI50 [15]: 2.09 µM (inactive) | GI50 [16]: 1.71 µM (inactive) | GI50 [17]: 3.13 µM (inactive) | GI50 [19]: 1.38 µM (inactive) | GI50 [18]: 3.33 µM (inactive)

O=C(N/C(=C/c1ccc(Cl)cc1)c1nc2ccccc2c(=O)n1Nc1ccc([N+](=O)[O-])cc1[N+](=O)[O-])c1ccccc1
GI50 [3]: > 100 µM (inactive) | GI50 [4]: > 100 µM (inactive) | GI50 [7]: > 100 µM (inactive) | GI50 [8]: > 100 µM (inactive) | GI50 [9]: > 100 µM (inactive) | GI50 [10]: > 100 µM (inactive) | GI50 [11]: > 100 µM (inactive) | GI50 [12]: > 100 µM (inactive) | GI50 [13]: > 100 µM (inactive) | GI50 [14]: > 100 µM (inactive) | GI50 [15]: > 100 µM (inactive) | GI50 [16]: > 100 µM (inactive) | GI50 [17]: > 100 µM (inactive) | GI50 [19]: > 100 µM (inactive)

CN1CCOC1c1ccccc1O (stereo not given)
GI50 [1]: > 100 µM (inactive) | GI50 [3]: > 100 µM (inactive) | GI50 [4]: > 100 µM (inactive) | GI50 [5]: > 100 µM (inactive) | GI50 [6]: > 100 µM (inactive) | GI50 [7]: > 100 µM (inactive) | GI50 [8]: > 100 µM (inactive) | GI50 [9]: > 100 µM (inactive) | GI50 [10]: 85.3 µM (inactive) | GI50 [11]: > 100 µM (inactive) | GI50 [13]: > 100 µM (inactive) | GI50 [14]: > 100 µM (inactive) | GI50 [15]: > 100 µM (inactive) | GI50 [16]: > 100 µM (inactive) | GI50 [17]: > 100 µM (inactive) | GI50 [19]: > 100 µM (inactive) | GI50 [18]: > 100 µM (inactive)

Cc1ccc(S(=O)(=O)NC(=O)NC(CCC(N)=O)C(=O)O)cc1 (stereo not given)
GI50 [1]: > 100 µM (inactive) | GI50 [2]: > 100 µM (inactive) | GI50 [3]: > 100 µM (inactive) | GI50 [4]: > 100 µM (inactive) | GI50 [5]: > 100 µM (inactive) | GI50 [6]: > 100 µM (inactive) | GI50 [8]: > 100 µM (inactive) | GI50 [9]: > 100 µM (inactive) | GI50 [10]: > 100 µM (inactive) | GI50 [11]: 64.3 µM (inactive) | GI50 [12]: > 100 µM (inactive) | GI50 [13]: > 100 µM (inactive) | GI50 [14]: > 100 µM (inactive) | GI50 [15]: > 100 µM (inactive) | GI50 [16]: > 100 µM (inactive) | GI50 [17]: > 100 µM (inactive) | GI50 [18]: > 100 µM (inactive)

CCCCCCCCCCCCCCCCOCC(Cl)COP(=O)(O)OP(=O)(O)OCC1OC(n2cnc3c(N)ncnc32)C(O)C1O (stereo not given)
GI50 [1]: > 100 µM (inactive) | GI50 [3]: 38.7 µM (inactive) | GI50 [4]: 52.4 µM (inactive) | GI50 [5]: > 100 µM (inactive) | GI50 [6]: > 100 µM (inactive) | GI50 [7]: > 100 µM (inactive) | GI50 [8]: > 100 µM (inactive) | GI50 [9]: 61.8 µM (inactive) | GI50 [10]: 31 µM (inactive) | GI50 [11]: 70.8 µM (inactive) | GI50 [12]: > 100 µM (inactive) | GI50 [13]: > 100 µM (inactive) | GI50 [14]: > 100 µM (inactive) | GI50 [15]: 76 µM (inactive) | GI50 [16]: > 100 µM (inactive) | GI50 [17]: > 100 µM (inactive) | GI50 [19]: 54.7 µM (inactive) | GI50 [18]: > 100 µM (inactive)
